Each structure is given as a SMILES string.

Experiment [1] has as its system oligoribonucleotide 3 (biotinylated truncated pre-miR-21) (RNA, miRNA) CCGACUGAUGUUGACUGUUGAAUCUCAUGGCAACACCAGUCGG
The experiment is described as follows: SPR steady state. Particulars: 80 mM NaCl, 100 mM total Na+; 20 mM sodium cacodylate, pH 7.2; equivalent affinity for all sites; per site.

In experiment [2] the test system is oligoribonucleotide 2 (truncated pre-miR-21, 43 nt) (RNA, miRNA) CCGACUGAUGUUGACUGUUGAAUCUCAUGGCAACACCAGUCGG
The experiment can be described thus: ITC. The conditions noted are these: 80 mM NaCl, 100 mM total Na+; 20 mM sodium cacodylate, pH 7.2, 25 °C; 10 µM RNA; 1:1 fit.

In experiment [3] the test system is oligoribonucleotide 4 (biotinylated FRET-pair truncated pre-miR-21) (RNA, miRNA, tC^O (cytosine analogue, donor) at 15; tCnitro (cytosine analogue, acceptor) at 24) CCGACUGAUGUUGACUGUUGAAUCUCAUGGCAACACCAGUCGG
The experiment can be described thus: SPR steady state. The conditions noted are these: 80 mM NaCl, 100 mM total Na+; 20 mM sodium cacodylate, pH 7.2; equivalent affinity for all sites; per site.

In experiment [4] the test system is oligoribonucleotide 7 (stem FRET-labelled truncated pre-miR-21) (RNA, miRNA, tC^O (cytosine analogue, donor) at 15; tCnitro (cytosine analogue, acceptor) at 37) CCGACUGAUGUUGACUGUUGAAUCUCAUGGCAACACCAGUCGG
The experiment is described as follows: interbase-FRET, change in FRET efficiency. Particulars: 80 mM NaCl, 100 mM total Na+; 20 mM sodium cacodylate, pH 7.2; 1 µM RNA, 15 µM compound; single concentration, not a constant.

The test system of experiment [5] is oligoribonucleotide 5 (hairpin loop FRET-labelled truncated pre-miR-21) (RNA, miRNA, tC^O (cytosine analogue, donor) at 24; tCnitro (cytosine analogue, acceptor) at 31) CCGACUGAUGUUGACUGUUGAAUCUCAUGGCAACACCAGUCGG
The experiment is described as follows: interbase-FRET, change in FRET efficiency. Particulars: 80 mM NaCl, 100 mM total Na+; 20 mM sodium cacodylate, pH 7.2; 1 µM RNA, 15 µM compound; single concentration, not a constant.

With `NC[C@@H]1O[C@H](O[C@H]2[C@@H](O)[C@H](O[C@@H]3[C@@H](O)[C@H](N)C[C@H](N)[C@H]3O[C@H]3O[C@H](CN)[C@@H](O)[C@H](O)[C@H]3N)O[C@@H]2CO)[C@H](N)[C@@H](O)[C@@H]1O`, the Kd in experiment [1] stood at 3.9 ± 2.8 µM; in experiment [2] it was 5.2 ± 0.8 µM; in experiment [3], 2.7 ± 1.7 µM. Also, the ΔFRET15µM in experiment [4] is on record as 0.045; in experiment [5] it was 0.042.
As for `CCN[C@@H]1C[C@H](N)[C@@H](O[C@H]2OC(CN)=CC[C@H]2N)[C@H](O)[C@H]1O[C@H]1OC[C@](C)(O)[C@H](NC)[C@H]1O`, the dissociation constant (Kd) in experiment [1] turned out to be 28 ± 35 µM; in experiment [3], 27 ± 34 µM.
In the case of `NC[C@H]1O[C@H](O[C@H]2[C@H](O)[C@@H](O[C@H]3O[C@H](CO)[C@@H](O)[C@H](N)[C@H]3O)[C@H](N)C[C@@H]2N)[C@H](O)[C@@H](O)[C@@H]1O`, the figures for the Kd in experiment [1] and in experiment [3] were 44 ± 18 µM and 45 ± 23 µM, respectively.
For the molecule `NCC[C@H](O)C(=O)N[C@@H]1C[C@H](N)[C@@H](O[C@H]2O[C@H](CN)[C@@H](O)[C@H](O)[C@H]2O)[C@H](O)[C@H]1O[C@H]1O[C@H](CO)[C@@H](O)[C@H](N)[C@H]1O`, the values for the equilibrium dissociation constant (Kd) in experiment [1] and in experiment [3] were 15 ± 4 µM and 14 ± 3 µM, respectively.
For `CN[C@@H]1[C@@H](O)[C@@H](O[C@@H]2[C@@H](O)[C@H](O[C@H]3OC(CN)=CC[C@H]3N)[C@@H](N)C[C@H]2N)OC[C@]1(C)O`, the Kd in experiment [1] and in experiment [3] was 4 ± 2 µM in each case. The ΔFRET15µM in experiment [4] amounted to 0.041; in experiment [5] it was 0.023.
Take `CN[C@@H]1[C@@H](O)[C@@H](O[C@@H]2[C@@H](O)[C@H](O[C@H]3O[C@H]([C@@H](C)O)[C@@H](O)[C@H](O)[C@H]3N)[C@@H](N)C[C@H]2N)OC[C@]1(C)O`: the values for the Kd in experiment [1] and in experiment [3] were 101 ± 44 µM and 94 ± 57 µM, respectively.
As for `CN[C@@H]1[C@H](O[C@H]2[C@H](O[C@H]3[C@H](O)[C@@H](O)[C@H](N=C(N)N)[C@@H](O)[C@@H]3N=C(N)N)O[C@@H](C)[C@]2(O)C=O)O[C@@H](CO)[C@H](O)[C@H]1O`, the figures for the Kd in experiment [1] and in experiment [3] were 134 ± 76 µM and 115 ± 80 µM, respectively. The ΔFRET15µM was found to be 0.008 in experiment [4] and 0.004 in experiment [5].
On to `CN[C@@H]1[C@@H](O[C@H]2O[C@H](CO)[C@@H](N)[C@H](O)[C@H]2O)O[C@H]2C[C@@H](N)[C@@H](O[C@H]3[C@H](O)[C@@H](O)[C@H](N)C[C@@H]3N)O[C@@H]2[C@@H]1O`, for which the Kd in experiment [1] worked out at 22 ± 12 µM; in experiment [3], 23 ± 12 µM.
The corresponding values for `NC[C@H]1O[C@H](O[C@H]2[C@H](O[C@@H]3O[C@H](CO)[C@@H](O)[C@H]3O)[C@@H](O)[C@H](N)C[C@@H]2N)[C@H](N)[C@@H](O)[C@@H]1O` are 90 ± 73 µM and 78 ± 67 µM.
Consider `NC[C@H]1O[C@H](O[C@H]2[C@H](O)[C@@H](O[C@H]3O[C@H](CO)[C@@H](O)[C@H](N)[C@H]3O)[C@H](N)C[C@@H]2N)[C@H](N)C[C@@H]1O`, for which the Kd in experiment [1] stood at 8 ± 4 µM; in experiment [3], 8 ± 5 µM. For the same molecule, the ΔFRET15µM in experiment [4] was found to be 0.049; in experiment [5], 0.024.

Source of the values: publication PMC8087795 (2021).
